Our source for the melting point, cell toxicity and IC50 values is patent publication US7323458B1, “Dihydrobenzodiazepins and their use for treating dyslipidemia” (Merck Patent Gesellschaft Mit Beschrankter Haftung, priority 1999, dated 2008).

What is called melting point is the temperature of the solid-liquid transition.

For one data set, the system named is Hep G2 cells. The data set is described as follows: Toxicity on the cells by staining with neutral red. Type of data set: cell-based, human. To be noted: for the concentrations studied. The protocol:
In the absence of a chemical treatment, the response of the cells is 100% (0% inhibition). Under the conditions used, the effect of DMSO on the cells is negligible. The toxicity of the chemical substances on the cells is measured by the technique of staining with neutral red.
(§1) The percentage of inhibition is calculated only for the substances that show no toxicity on the Hep G2 cells.

A further data set deals with secretion of apo CIII. The data set is described as follows: Reduction of apo CIII secretion by Hep G2 human hepatocytes in culture (ELISA). Type of data set: cell-based. The following applies: HepG2, Hep G2 cells, 24 hours incubation, read-out: concentration which gives a 50% inhibition of the secretion of Apo CIII. The protocol: The hypolipidaemiant activity of the compounds of the invention result from their ability to reduce the secretion of apo CIII.
The Hep G2 cell line is derived from a human hepatic carcinoma (ref. ECACC No. 85011430).
The cells are cultured at 37° C., 5% CO2 in 96-well microtitration plates at a rate of 40 000 cells (200 μl) per well in a DMEM buffer, 10% foetal calf serum, 1% Glutamax+antibiotics, for 24 hours. […] The cells are incubated for 24 hours at 37° C., 5% CO2 and the medium is then removed.
The amount of apolipoprotein CIII secreted into the medium is measured by means of an assay of ELISA type. Each sample of culture medium is diluted 5-fold in a 100 mM phosphate buffer, 1% BSA. […]
The optical density is read directly using a spectrophotometer at 492 nm. The amount of Apo CIII is calculated relative to a calibration curve produced using an assayed human serum of Apo CIII and diluted under the same conditions as the Apo CIII contained in the culture medium. […]
The active substances bring about a reduction in the secretion of Apo CIII into the medium by the adherent cells. The concentration of Apo CIII is measured for each treatment and compared with the control test (no treatment).
The percentage of inhibition is calculated according to: […]
as §1
In general terms: An ELISA detects its analyte on a solid surface through an enzyme-linked reagent.

As for `C1=C(c2ccc3ccccc3c2)N2CCc3ccccc3N=C2S1` [Example 47], the melting point lay in the range of 188.5 to 189.5 °C.

For `C1=C(c2ccc(-c3ccccc3)cc2)N2CCc3ccccc3N=C2S1` [Example 4, 3-(biphenyl-4-yl)-5,6-dihydrothiazolo[2,3-b]-1,3-benzodiazepine], the cell toxicity entry with Hep G2 cells is reported as “No cell toxicity is observed”. Besides, the IC50 with secretion of apo CIII came to 17.4 µM. The compound `CCOC(=O)c1ccc(C2=CSC3=Nc4ccccc4CCN23)cc1` [Example 36, 3-[4-(ethoxycarbonyl)phenyl]-5,6-dihydro-thiazolo-[2,3-b]-1,3-benzodiazepine] came in with a melting point of 231 to 233 °C. The compound `C1=C(c2ccc(Oc3ccccc3)cc2)N2CCc3ccccc3N=C2S1` [Example 67] registered a melting point of 204 to 205 °C. In turn, `CC1=CSC2=Nc3ccccc3CCN12` [Example 50] gave a melting point of 194 to 196 °C.
